Like-named read-outs stand apart in the source and are kept apart here.

Series [1] concerns Mino cells. In words: Inhibition of cell proliferation, Mino cells (Cell Viability Assay, 72 h). The series is classed as cell-based, human. The method, then: (§1) SU-DHL-4, Mino, and SU-DHL-6 cells, in the culture medium of RPMI1640+10% FBS, were cultured in an incubator at 37° C. under 5% CO2. Cells were plated in a 96-well plate. Specifically, SU-DHL-4 cells were at 20000/well, Mino and SU-DHL-6 cells were at 5000/well, with 90 μL/well. 10 μL of the compounds at different concentrations were added to each well. There were 3 replicate wells for each concentration, and the last column, added with DMSO, was used as a vehicle control group. The cultures were continued for 72 hours at 37° C. under 5% CO2. After 72 hours, 100 μL of detection reagent (Cell Viability Assay, Promega, G7573) was added to each well, and the cultures were uniformly mixed for 2 minutes, and incubated at room temperature for 10 minutes. The […] signal value was measured with a microplate reader (PHERAstar FSX). The IC50 value of the compound on cell proliferation inhibition was calculated using origin9.2 software, and the inhibition rate at the highest concentration of the compound (Max inhi.%) was calculated according to formula (1).
(§2) Max inhi.%=(1−T72administration/T72vehicle)×100 Formula (1).

Series [2] can be described thus: Pharmacokinetic experiment in rats. The class given is in vivo. The note with it: male, SD, rat, po, plasma, i.g. (20 mg/kg); for AUC(0-t): single dose. The method, then: Experimental objective: In this experiment, a single dose of each test compound was administered to SD rats intravenously and intragastrically, the concentrations of the test compound in plasma of rats were measured, and the pharmacokinetic characteristics and bioavailability of the test compound in rats were evaluated.
Experimental animals: Male SD rats, about 200 g, 6-8 weeks old, 6 rats/compound. Rats were purchased from Hunan SJA Laboratory Animal Co., Ltd, with the laboratory animal production license number of SCXK (Xiang) 2019-004.
Experimental method: On the day of the experiment, 6 SD rats were randomly grouped according to their body weight. The animals were fasted with water available for 12 to 14 hours one day before the administration of a test compound, and were fed 4 hours after the administration.
Before and after the administration, […] of blood was taken from the orbit of the rats under isoflurane anesthesia, and placed in an EDTAK2 centrifuge tube. Centrifugation was carried out at 5000 rpm at 4° C. for 10 min, and the plasma was collected.
Time points for sample collection in G1&G2 groups comprise
Before analysis and detection, all samples were stored at −80° C. The samples were detected by HPLC-MS/MS.

For series [3], the system named is SU-DHL-6 cells. The series is described as follows: Inhibition of cell proliferation, SU-DHL-6 cells (Cell Viability Assay, 72 h). The series is classed as cell-based, human. The method, then:
as §1, §2

Usually IC50 stands for the concentration that inhibits the measured activity by half. Low values mean greater potency, high ones weaker potency. What is called AUC(0-t) is the area under the concentration-time curve up to a stated or last time point. As to `Nc1ncnc2c1c(-c1ccc(Oc3ccccc3)cc1)nn2[C@H]1CCN(C2CN(CC3CN(c4ccc5c(c4)C(=O)N(C4CCC(=O)NC4=O)C5=O)C3)C2)C[C@H]1F` (stereo partly drawn) [Compound 104, 5-(3-((3-((3R,4S)-4-(4-amino-3-(4-phenoxyphenyl)-1H-pyrazolo[3,4-d]pyrimidin-1-yl)-3-fluoropiperidin-1-yl)azetidin-1-yl)methyl)azetidin-1-yl)-2-(2,6-dioxopiperidin-3-yl)isoindoline-1,3-dione], the IC50 in series [1] (Homo sapiens, MINO, 72 h) turned out to be 16 nM; in series [3] (Homo sapiens, SU-DHL-6, 72 h), 23 nM. In series [2], the AUC(0-t) amounted to 1320 ± 653 ng·h/mL.

Turning to `Nc1ncnc2c1c(-c1ccc(Oc3ccccc3)cc1)nn2C1CCN(C2CN(CC3CN(c4cccc5c4C(=O)N(C4CCC(=O)NC4=O)C5=O)C3)C2)CC1` (stereo not shown) [Compound 105, 4-(3-((3-(4-(4-amino-3-(4-phenoxyphenyl)-1H-pyrazolo[3,4-d]pyrimidin-1-yl)piperidin-1-yl)azetidin-1-yl)methyl)azetidin-1-yl)-2-(2,6-dioxopiperidin-3-yl)isoindoline-1,3-dione], the half-maximal inhibitory concentration (IC50) in series [1] (Homo sapiens, MINO, 72 h) is 208 nM; in series [3] (Homo sapiens, SU-DHL-6, 72 h), 331 nM.

For orientation: bioavailability means the share of a dose that reaches the circulation, judged against a reference dose that is usually intravenous. The low end stands for little systemic uptake, the high end for much systemic uptake. As to `Nc1ncnc2c1c(-c1ccc(Oc3ccccc3)cc1)nn2C1CCN(C2CN(CC3CN(c4cc5c(cc4F)C(=O)N(C4CCC(=O)NC4=O)C5=O)C3)C2)CC1` (stereo not shown) [Compound 106, 5-(3-((3-(4-(4-amino-3-(4-phenoxyphenyl)-1H-pyrazolo[3,4-d]pyrimidin-1-yl)piperidin-1-yl)azetidin-1-yl)methyl)azetidin-1-yl)-2-(2,6-dioxopiperidin-3-yl)-6-fluoroisoindoline-1,3-dione], the 50% inhibitory concentration (IC50) in series [1] (Homo sapiens, MINO, 72 h) was 119 nM; in series [3] (Homo sapiens, SU-DHL-6, 72 h) it was 95 nM. Moreover, the bioavailability in series [2] (bioavailability) came out at 14.4 ± 3.3%. In series [2], the AUC(0-t) is 3210 ± 728 ng·h/mL.

`Nc1ncnc2c1c(-c1ccc(Oc3ccccc3)cc1)nn2[C@@H]1CCN(C2CN(CC3CN(c4ccc5c(c4)C(=O)N(C4CCC(=O)NC4=O)C5=O)C3)C2)C[C@@H]1F` (stereo partly drawn) [Compound 110, 5-(3-((3-((3S,4R)-4-(4-amino-3-(4-phenoxyphenyl)-1H-pyrazolo[3,4-d]pyrimidin-1-yl)-3-fluoropiperidin-1-yl)azetidin-1-yl)methyl)azetidin-1-yl)-2-(2,6-dioxopiperidin-3-yl)isoindoline-1,3-dione]: the concentration for half-maximal inhibition (IC50) in series [1] (Homo sapiens, MINO, 72 h) turned out to be 35 nM; in series [3] (Homo sapiens, SU-DHL-6, 72 h), 31 nM. This molecule also gave an exposure AUC(0-t) in series [2] of 614 ± 125 ng·h/mL.

Take `Nc1ncnc2c1c(-c1ccc(Oc3ccccc3)cc1)nn2[C@@H]1CCN(C2CN(CC3CN(c4ccc5c(c4)C(=O)N(C4CCC(=O)NC4=O)C5=O)C3)C2)C[C@H]1F` (stereo partly drawn) [Compound 111, 5-(3-((3-((3R,4R)-4-(4-amino-3-(4-phenoxyphenyl)-1H-pyrazolo[3,4-d]pyrimidin-1-yl)-3-fluoropiperidin-1-yl)azetidin-1-yl)methyl)azetidin-1-yl)-2-(2,6-dioxopiperidin-3-yl)isoindoline-1,3-dione]: the IC50 in series [1] (Homo sapiens, MINO, 72 h) came to 50 nM; in series [3] (Homo sapiens, SU-DHL-6, 72 h) it was 23 nM. In series [2], this molecule came in with an area under the curve AUC(0-t) of 753 ± 261 ng·h/mL.

Consider `Nc1ncnc2c1c(-c1ccc(Oc3ccccc3)cc1)nn2[C@H]1CCN(C2CN(CC3CN(c4ccc5c(c4)C(=O)N(C4CCC(=O)NC4=O)C5=O)C3)C2)C[C@@H]1F` (stereo partly drawn) [Compound 112, 5-(3-((3-((3S,4S)-4-(4-amino-3-(4-phenoxyphenyl)-1H-pyrazolo[3,4-d]pyrimidin-1-yl)-3-fluoropiperidin-1-yl)azetidin-1-yl)methyl)azetidin-1-yl)-2-(2,6-dioxopiperidin-3-yl)isoindoline-1,3-dione], for which the half-inhibitory concentration (IC50) in series [1] (Homo sapiens, MINO, 72 h) was found to be 39 nM; in series [3] (Homo sapiens, SU-DHL-6, 72 h), 36 nM. Also, in series [2], the AUC(0-t) is 1780 ± 663 ng·h/mL.

With `Nc1ncnc2c1c(-c1ccc(Oc3ccccc3)cc1)nn2[C@H]1CCN(C2CN(CC3CN(c4cc5c(cc4F)C(=O)N(C4CCC(=O)NC4=O)C5=O)C3)C2)C[C@H]1F` (stereo partly drawn) [Compound 114, 5-(3-((3-((3R,4S)-4-(4-amino-3-(4-phenoxyphenyl)-1H-pyrazolo[3,4-d]pyrimidin-1-yl)-3-fluoropiperidin-1-yl)azetidin-1-yl)methyl)azetidin-1-yl)-2-(2,6-dioxopiperidin-3-yl)-6-fluoroisoindoline-1,3-dione], the IC50 in series [1] (Homo sapiens, MINO, 72 h) amounted to 66 nM; in series [3] (Homo sapiens, SU-DHL-6, 72 h), 24 nM. The molecule also registered an area under the curve AUC(0-t) in series [2] of 2670 ± 738 ng·h/mL.

On to `Nc1ncnc2c1c(-c1ccc(Oc3ccccc3)cc1)nn2C1CCN(C2C[C@@H]3CN(CC4CN(c5ccc6c(c5)C(=O)N(C5CCC(=O)NC5=O)C6=O)C4)C[C@@H]3C2)CC1` (stereo partly drawn) [Trifluoroacetate of compound 100, 5-(3-(((3aR,6aS)-5-(4-(4-amino-3-(4-phenoxyphenyl)-1H-pyrazolo[3,4-d]pyrimidin-1-yl)piperidin-1-yl)hexahydrocyclopenta[c]pyrrol-2(1H)-yl)methyl)azetidin-1-yl)-2-(2,6-dioxopiperidin-3-yl)isoindoline-1,3-dione], for which the IC50 was 123 nM in series [1] (Homo sapiens, MINO, 72 h) and 99 nM in series [3] (Homo sapiens, SU-DHL-6, 72 h).

In the case of `Nc1ncnc2c1c(-c1ccc(Oc3ccccc3)cc1)nn2C1CCN(C2CC3(CCN(CC4CN(c5ccc6c(c5)C(=O)N(C5CCC(=O)NC5=O)C6=O)C4)CC3)C2)CC1` (stereo not shown) [Trifluoroacetate of compound 101, 5-(3-((2-(4-(4-amino-3-(4-phenoxyphenyl)-1H-pyrazolo[3,4-d]pyrimidin-1-yl)piperidin-1-yl)-7-azaspiro[3.5]nonan-7-yl)methyl)azetidin-1-yl)-2-(2,6-dioxopiperidin-3-yl)isoindoline-1,3-dione], the IC50 was 77 nM in series [1] (Homo sapiens, MINO, 72 h) and 77 nM in series [3] (Homo sapiens, SU-DHL-6, 72 h).

Turning to `Nc1ncnc2c1c(-c1ccc(Oc3ccccc3)cc1)nn2C1CCN(C2CN(C3CN(CC4CN(c5ccc6c(c5)C(=O)N(C5CCC(=O)NC5=O)C6=O)C4)C3)C2)CC1` (stereo not shown) [Trifluoroacetate of compound 102, 5-(3-((3-(4-(4-amino-3-(4-phenoxyphenyl)-1H-pyrazolo[3,4-d]pyrimidin-1-yl)piperidin-1-yl)-[1,3′-biazetidin]-1′-yl)methyl)azetidin-1-yl)-2-(2,6-dioxopiperidin-3-yl)isoindoline-1,3-dione], the IC50 in series [1] (Homo sapiens, MINO, 72 h) was 42 nM; in series [3] (Homo sapiens, SU-DHL-6, 72 h), 23 nM.

As for `Nc1ncnc2c1c(-c1ccc(Oc3ccccc3)cc1)nn2C1CCN(C2CN(CC3CN(c4ccc5c(c4)CN(C4CCC(=O)NC4=O)C5=O)C3)C2)CC1` (stereo not shown) [Trifluoroacetate of compound 107, 3-(5-(3-((3-(4-(4-amino-3-(4-phenoxyphenyl)-1H-pyrazolo[3,4-d]pyrimidin-1-yl)piperidin-1-yl)azetidin-1-yl)methyl)azetidin-1-yl)-1-oxoisoindolin-2-yl)piperidine-2,6-dione], the half-inhibitory concentration (IC50) in series [1] is 34 nM; in series [3] it was 22 nM.

In the case of `Nc1ncnc2c1c(-c1ccc(Oc3ccccc3)cc1)nn2C1CCN(C2CN(CC3CN(Cc4ccc5c(c4)C(=O)N(C4CCC(=O)NC4=O)C5=O)C3)C2)CC1` (stereo not shown) [Trifluoroacetate of compound 109, 5-((3-((3-(4-(4-amino-3-(4-phenoxyphenyl)-1H-pyrazolo[3,4-d]pyrimidin-1-yl)piperidin-1-yl)azetidin-1-yl)methyl)azetidin-1-yl)methyl)-2-(2,6-dioxopiperidin-3-yl)isoindoline-1,3-dione], the figures for the IC50 in series [1] and in series [3] were 356 nM and 145 nM, respectively.

Source of the values: US20230248833A1, “COMPOUND HAVING BTK KINASE DEGRADING ACTIVITY, AND PREPARATION METHOD AND PHARMACEUTICAL USE THEREFOR” (SICHUAN HAISCO PHARMACEUTICAL CO., LTD., priority 2020, published 2023).
